Experimental data reported in US7279321B2, “Methods for increasing the resistance of a host cell to aromatic carboxylic acids” (priority 2003, dated 2007).
≈ marks a conversion by molar mass, not a printed value.

Columns and labels:
[1] = tested on: E. coli MG1655 (yhcP+); test: microbe, parasite or virus in culture; format: cell-based; conditions: for MIC, MG1655 (yhcP+): 16 to 18 hours at 37° C., 0.01% tetrazolium violet; for Rank Diff: score of pigment color for MG1655 at the MIC for DPD2444 (0 = no color, 4 = full purple color); for MIC: Escherichia coli, MG1655, read-out: MIC, MG1655 (yhcP+)
Description: (§1) Additional compounds were tested for growth inhibition of E. coli MG1655 (yhcP^+) and DPD2444 (yhcP^−) in Vogel-Bonner medium with glucose as the carbon source and with 0.01% tetrazolium violet added as an indicator of viability. A series of two-fold dilutions of each chemical was made to the wells of a clear 96-well microplate in 50 μl volume. To these wells was added 50 μl of an overnight culture in Vogel Bonner medium with glucose as a carbon source of either MG1655 or DPD2444 that had been previously diluted 500-fold into fresh medium. The plates were incubated at 37° C. without shaking for 16 to 18 hours. The purple color in each well was visually scored. A score of 4+ indicated full purple color equivalent to a no chemical control well. Scores of 3+, 2+, or 1+ indicated decreasing amounts of purple color. A score of − indicated the complete absence of color. The MIC was defined as the lowest tested concentration that gave complete absence of color. The rank of difference between strains was defined as the score of pigment color for E. coli MG1655 in wells containing the concentration of a given chemical at the MIC for DPD24444. When MG1655 had no color, the score was 0. When MG 1655 was scored at 1+, the score was 1, when scored at 2+, the score was 2, etc.

[2] = tested on: E. coli DPD2444 (yhcP−); test: microbe, parasite or virus in culture; format: cell-based; conditions: for MIC, DPD2444 (yhcP−): 16 to 18 hours at 37° C., 0.01% tetrazolium violet; for Fold Diff: MIC MG1655 versus MIC DPD2444; for MIC: Escherichia coli, read-out: MIC, DPD2444 (yhcP−)
Description: as §1

| Compound | MIC, MG1655 (yhcP+) [1] [mM] | Rank Diff [1] | MIC, DPD2444 (yhcP−) [2] [mM] | Fold Diff [2] | MIC [1] [µM] | MIC [2] [µM] | defined as substrate of the YhcP efflux pump by this genetic test ([2]; MIC difference at least 2-fold and rank at least 2) |
| --- | --- | --- | --- | --- | --- | --- | --- |
| O=C(O)c1ccc(C(=O)O)c2ccccc12 [1,4-naphthalenedicarboxyylic acid] | 10 (≈ 2160 µg/mL) | 0 | 10 (≈ 2160 µg/mL) | 1 |  |  |  |
| Oc1cccc2c(O)cccc12 [1,5-dihydroxynaphthalene] |  | 1 |  | 2 | 500 (≈ 80.1 µg/mL) | 250 (≈ 40 µg/mL) |  |
| Oc1ccc2c(O)cccc2c1 [1,6-dihydroxynaphthalene] |  | 1 |  | 2 | 500 (≈ 80.1 µg/mL) | 250 (≈ 40 µg/mL) |  |
| O=C(O)c1ccc2ccccc2c1O [1-hydroxy-2-naphthoic acid] |  | 0 |  | 1 | 620 (≈ 117 µg/mL) | 620 (≈ 117 µg/mL) |  |
| O=C(O)c1cccc2ccccc12 [1-naphthoic acid] |  | 0 |  | 1 | 2500 (≈ 430 µg/mL) | 2500 (≈ 430 µg/mL) |  |
| O=C(O)c1cccc(O)c1O [2,3-dihydroxybenzoic acid] |  | 0 |  | 1 | 10000 (≈ 1540 µg/mL) | 10000 (≈ 1540 µg/mL) |  |
| O=C(O)c1cc2ccccc2cc1C(=O)O [2,3-naphthalenedicarboxylic acid] |  | 0 |  | 1 | 80000 (≈ 17300 µg/mL) | 80000 (≈ 17300 µg/mL) |  |
| COc1cccc(OC)c1O [2,6-dimethoxyphenol] |  | 0 |  | 1 | 5000 (≈ 771 µg/mL) | 5000 (≈ 771 µg/mL) |  |
| Oc1ccc2ccc(O)cc2c1 [2,7-dihydroxynaphthalene] |  | 1 |  | 2 | 620 (≈ 99.3 µg/mL) | 310 (≈ 49.7 µg/mL) |  |
| O=C(O)c1ccccc1-c1ccccc1 [2-biphenylcarboxylic acid] |  | 0 |  | 1 | 2500 (≈ 496 µg/mL) | 2500 (≈ 496 µg/mL) |  |
| O=C(O)C=Cc1ccccc1O [2-hydroxycinnamate] | 20 (≈ 3280 µg/mL) | 2 | 10 (≈ 1640 µg/mL) | 2 |  |  | substrates of the YhcP efflux pump |
